# From PMC12396409, “Screening and hit evaluation of a microbial metabolite library against the pathogenic Plasmodium falciparum and Toxoplasma gondii parasites” (International Journal for Parasitology: Drugs and Drug …, 2025)
# Like-named read-outs stand apart in the source and are kept apart here.
# Experiments:
# [1] = test system: T. gondii RH strain (RH-Tub-eYFP) tachyzoites; assay: microbe, parasite or virus in culture; type: cell-based, Toxoplasma gondii; conditions: for percent parasite growth at 2 µg/mL: Toxoplasma gondii
# [2] = test system: P. falciparum 3D7 parasites; assay: P. falciparum growth inhibition assay, 2-cycle (120 h treatment), delayed-death screen and dose-response; type: cell-based, Plasmodium falciparum; conditions: for activity at 2 µg/mL: Plasmodium falciparum
# [3] = test system: P. falciparum 3D7 parasites; assay: P. falciparum growth inhibition assay, 1-cycle (72 h treatment), SYBR DNA staining (library screen at 2 μg/mL and dose-response); type: cell-based, Plasmodium falciparum; conditions: for activity at 2 µg/mL: Plasmodium falciparum
# [4] = T. gondii, 72 h, parasite screen 2 μg/mL, % growth, replicate 1
# [5] = T. gondii, 72 h, parasite screen 2 μg/mL, % growth, replicate 2
# [6] = P. falciparum, 120 h, parasite screen 2 μg/mL, % growth, replicate 1
# [7] = P. falciparum, 120 h, parasite screen 2 μg/mL, % growth, replicate 2
# [8] = P. falciparum, 72 h, parasite screen 2 μg/mL, % growth, replicate 1
# [9] = P. falciparum, 72 h, parasite screen 2 μg/mL, % growth, replicate 2
# [10] = library screen at 2 μg/mL, 72 h, % growth, replicate 1
# [11] = library screen at 2 μg/mL, 72 h, % growth, replicate 2
# [12] = library screen at 2 μg/mL, 120 h, % growth, replicate 1
# [13] = library screen at 2 μg/mL, 120 h, % growth, replicate 2
# [14] = T. gondii, 72 h, screen at 2 μg/mL, replicate 1
# [15] = T. gondii, 72 h, screen at 2 μg/mL, replicate 2
# [16] = P. falciparum, 120 h, screen at 2 μg/mL, replicate 1
# [17] = P. falciparum, 120 h, screen at 2 μg/mL, replicate 2
# [18] = P. falciparum, 72 h, screen at 2 μg/mL, replicate 1
# [19] = P. falciparum, 72 h, screen at 2 μg/mL, replicate 2
molecule,measurement,setting,value
"CCO[C@@H]1[C@@H](OC)[C@H](C)O[C@@H](O[C@@H]2C[C@H]3CC[C@@H]4[C@@H](C=C5C(=O)[C@H](C)[C@@H](O[C@H]6CC[C@H](N(C)C)[C@@H](C)O6)CCC[C@H](CC)OC(=O)C[C@H]54)[C@@H]3C2)[C@@H]1OC [spinosyn J, 3'-Ethoxy-5,6-dihydro-]",Tg_72h_%Growth_Rep1,[1]; [4],73.90%
same,Tg_72h_%Growth_Rep2,[1]; [5],86.54%
same,Pf_120h_%Growth_Rep1,[2]; [6],7.21%
same,Pf_120h_%Growth_Rep2,[2]; [7],9.72%
same,Pf_72h_%Growth_Rep1,[3]; [8],5.68%
same,Pf_72h_%Growth_Rep2,[3]; [9],5.35%
"C=CCNC1=C2C[C@@H](C)C[C@H](OC)[C@H](O)[C@@H](C)/C=C(\C)[C@H](OC(N)=O)[C@@H](OC)/C=C\C=C(/C)C(=O)NC(=CC1=O)C2=O [Allylamino-17-demethoxygeldanamycin, 17-]",Tg_72h_%Growth_Rep1,[1]; [10],-1.02%
same,Tg_72h_%Growth_Rep2,[1]; [11],-0.21%
same,Pf_120h_%Growth_Rep1,[2]; [12],19.67%
same,Pf_120h_%Growth_Rep2,[2]; [13],7.18%
same,Pf_72h_%Growth_Rep1,[3]; [10],14.05%
same,Pf_72h_%Growth_Rep2,[3]; [11],5.13%
CC(=O)c1c(O)cc(O)c(C(C)=O)c1O [Diacetylphloroglucinol],Tg_72h_%Growth_Rep1,[1]; [10],140.70%
same,Tg_72h_%Growth_Rep2,[1]; [11],94.75%
same,Pf_120h_%Growth_Rep1,[2]; [12],64.84%
same,Pf_120h_%Growth_Rep2,[2]; [13],102.18%
same,Pf_72h_%Growth_Rep1,[3]; [10],86.52%
same,Pf_72h_%Growth_Rep2,[3]; [11],90.35%
"CCc1c(Cl)c(O)c(Cl)c(O)c1C(=O)O[C@H]1[C@H](O)[C@H](OC)[C@H](OC/C2=C\C=C\C[C@H](O)/C(C)=C/[C@H](CC)[C@@H](O[C@@H]3OC(C)(C)[C@@H](OC(=O)C(C)C)[C@H](O)[C@@H]3O)/C(C)=C/C(C)=C/C[C@@H]([C@@H](C)O)OC2=O)O[C@@H]1C [fidaxomicin, reference compound]",percent parasite growth at 2 µg/mL,"[1]; 72 h, library screen at 2 μg/mL, 72 h, % growth, replicate 1, read-out: Tg_72h_%Growth_Rep1",85.9%
same,percent parasite growth at 2 µg/mL,"[1]; 72 h, library screen at 2 μg/mL, 72 h, % growth, replicate 2, read-out: Tg_72h_%Growth_Rep2",92.4%
same,activity at 2 µg/mL,"[2]; 3D7, library screen at 2 μg/mL, 120 h, % growth, replicate 1, read-out: Pf_120h_%Growth_Rep1",13.8%
same,activity at 2 µg/mL,"[2]; 3D7, library screen at 2 μg/mL, 120 h, % growth, replicate 2, read-out: Pf_120h_%Growth_Rep2",-3.62%
same,activity at 2 µg/mL,"[3]; 3D7, library screen at 2 μg/mL, 72 h, % growth, replicate 1, read-out: Pf_72h_%Growth_Rep1",3.04%
same,activity at 2 µg/mL,"[3]; 3D7, library screen at 2 μg/mL, 72 h, % growth, replicate 2, read-out: Pf_72h_%Growth_Rep2",-1.42%
same,selectivity for P. falciparum in the screens,"[3]; active against the parasite at 2 μg/mL, no anti-tumour (NS-1) or cytotoxic (fibroblast) activity at 5 μg/mL",selective for P. falciparum
CC(C=CC1OC(=O)C=CC1C)=CC(C)CC=CC(C)=CC(C)C(=O)C(C)C(O)C(C)CC(C)=CC(=O)O (stereo not shown) [BIA-L1045],Tg_72h_%Growth_Rep1,"[1]; T. gondii RH, 72 h, library screen at 2 μg/mL, % growth, replicate 1",-0.52%
same,Tg_72h_%Growth_Rep2,"[1]; T. gondii RH, 72 h, library screen at 2 μg/mL, % growth, replicate 2",-0.11%
same,Pf_120h_%Growth_Rep1,"[2]; P. falciparum 3D7, 120 h, library screen at 2 μg/mL, % growth, replicate 1",60.90%
same,Pf_120h_%Growth_Rep2,"[2]; P. falciparum 3D7, 120 h, library screen at 2 μg/mL, % growth, replicate 2",15.41%
same,Pf_72h_%Growth_Rep1,"[3]; P. falciparum 3D7, 72 h, library screen at 2 μg/mL, % growth, replicate 1",49.36%
same,Pf_72h_%Growth_Rep2,"[3]; P. falciparum 3D7, 72 h, library screen at 2 μg/mL, % growth, replicate 2",24.76%
COc1c(C[C@@H](C)OC(=O)Oc2ccc(O)cc2)c2c3c(C[C@@H](C)OC(=O)c4ccccc4)c(OC)c(=O)c4c(O)cc(OC)c(c5c(OC)cc(O)c(c1=O)c52)c43 [Calphostin C],percent parasite growth at 2 µg/mL,"[1]; T. gondii, 72 h, screen at 2 μg/mL, replicate 1, read-out: Tg_72h_%Growth_Rep1",1%
same,percent parasite growth at 2 µg/mL,"[1]; T. gondii, 72 h, screen at 2 μg/mL, replicate 2, read-out: Tg_72h_%Growth_Rep2",2.07%
same,activity at 2 µg/mL,"[2]; 3D7, P. falciparum, 120 h, screen at 2 μg/mL, replicate 1, read-out: Pf_120h_%Growth_Rep1",17%
same,activity at 2 µg/mL,"[2]; 3D7, P. falciparum, 120 h, screen at 2 μg/mL, replicate 2, read-out: Pf_120h_%Growth_Rep2",9.44%
same,activity at 2 µg/mL,"[3]; 3D7, P. falciparum, 72 h, screen at 2 μg/mL, replicate 1, read-out: Pf_72h_%Growth_Rep1",13.6%
same,activity at 2 µg/mL,"[3]; 3D7, P. falciparum, 72 h, screen at 2 μg/mL, replicate 2, read-out: Pf_72h_%Growth_Rep2",9.2%
Chaetomin,Tg_72h_%Growth_Rep1,[1]; [14],114.47%
same,Tg_72h_%Growth_Rep2,[1]; [15],90.87%
same,Pf_120h_%Growth_Rep1,[2]; [16],45.75%
same,Pf_120h_%Growth_Rep2,[2]; [17],45.66%
same,Pf_72h_%Growth_Rep1,[3]; [18],58.72%
same,Pf_72h_%Growth_Rep2,[3]; [19],55.68%
CCCCC/C=C/C=C\C=C/[C@H](O)[C@H](C)[C@H](C/C=C/[C@@H]1OC(=O)C=C[C@@H]1O)OS(=O)(=O)[O-].[Na+] [Sultriecin],Tg_72h_%Growth_Rep1,[1]; [4],105.98%
same,Tg_72h_%Growth_Rep2,[1]; [5],90.75%
same,Pf_120h_%Growth_Rep1,[2]; [6],87.78%
same,Pf_120h_%Growth_Rep2,[2]; [7],130.19%
same,Pf_72h_%Growth_Rep1,[3]; [8],90.74%
same,Pf_72h_%Growth_Rep2,[3]; [9],116.83%
C/C=C/[C@@H]1C=C[C@@H]2C[C@H](C)CC[C@H]2[C@]1(C)/C(O)=C1/C(=O)[C@H](CO)N(C)C1=O [Equisetin],Tg_72h_%Growth_Rep1,[1]; [10],89.36%
same,Tg_72h_%Growth_Rep2,[1]; [11],86.41%
same,Pf_120h_%Growth_Rep1,[2]; [12],83.53%
same,Pf_120h_%Growth_Rep2,[2]; [13],117.48%
same,Pf_72h_%Growth_Rep1,[3]; [10],83.58%
same,Pf_72h_%Growth_Rep2,[3]; [11],91.13%
COC(=O)[C@]1(Cc2ccc(O)cc2)OC(=O)C(O)=C1c1ccc(O)cc1 [Butyrolactone II],Tg_72h_%Growth_Rep1,[1]; [14],129.35%
same,Tg_72h_%Growth_Rep2,[1]; [15],92.93%
same,Pf_120h_%Growth_Rep1,[2]; [16],89.95%
same,Pf_120h_%Growth_Rep2,[2]; [17],95.11%
same,Pf_72h_%Growth_Rep1,[3]; [18],83.73%
same,Pf_72h_%Growth_Rep2,[3]; [19],86.44%
CCCC[C@]1([C@H](/C=C/C(C)=C/C(=O)O)OC(=O)CCC(=O)O)CC[C@]2(CC[C@H](C)[C@@H](C/C=C(C)/C=C/[C@H](O)[C@@H](C)/C=C/C(=O)O)O2)O1 [Reveromycin B],percent parasite growth at 2 µg/mL,"[1]; 72 h, T. gondii, 72 h, parasite screen 2 μg/mL, % growth, replicate 1, read-out: Tg_72h_%Growth_Rep1",139%
same,percent parasite growth at 2 µg/mL,"[1]; 72 h, T. gondii, 72 h, parasite screen 2 μg/mL, % growth, replicate 2, read-out: Tg_72h_%Growth_Rep2",87.7%
same,activity at 2 µg/mL,"[2]; 3D7, 120 h, P. falciparum, 120 h, parasite screen 2 μg/mL, % growth, replicate 1, read-out: Pf_120h_%Growth_Rep1",78.2%
same,activity at 2 µg/mL,"[2]; 3D7, 120 h, P. falciparum, 120 h, parasite screen 2 μg/mL, % growth, replicate 2, read-out: Pf_120h_%Growth_Rep2",133%
same,activity at 2 µg/mL,"[3]; 3D7, 72 h, P. falciparum, 72 h, parasite screen 2 μg/mL, % growth, replicate 1, read-out: Pf_72h_%Growth_Rep1",89%
same,activity at 2 µg/mL,"[3]; 3D7, 72 h, P. falciparum, 72 h, parasite screen 2 μg/mL, % growth, replicate 2, read-out: Pf_72h_%Growth_Rep2",114%
Aflatoxin G2,Tg_72h_%Growth_Rep1,[1],134.03%
same,Tg_72h_%Growth_Rep2,[1],98.49%
same,Pf_120h_%Growth_Rep1,[2],98.15%
same,Pf_120h_%Growth_Rep2,[2],97.03%
same,Pf_72h_%Growth_Rep1,[3],83.21%
same,Pf_72h_%Growth_Rep2,[3],86.33%
CN1C(=O)[C@]23C[C@H]4C(C)(C)[C@]5(CNc6c5ccc5c6OC=CC(C)(C)O5)C[C@@]41CN2CC[C@@]3(C)O [Derquantel],Tg_72h_%Growth_Rep1,[1]; [10],207.28%
same,Tg_72h_%Growth_Rep2,[1]; [11],97.75%
same,Pf_120h_%Growth_Rep1,[2]; [12],88.90%
same,Pf_120h_%Growth_Rep2,[2]; [13],91.44%
same,Pf_72h_%Growth_Rep1,[3]; [10],84.92%
same,Pf_72h_%Growth_Rep2,[3]; [11],84.29%
CC1=C[C@@H]2/C=C(/C)CCC(=O)[C@@H](O)CCC(=O)[C@]23C(=O)N[C@@H](CC(C)C)[C@@H]3[C@@H]1C [Aspochalasin M],Tg_72h_%Growth_Rep1,[1]; [10],143.85%
same,Tg_72h_%Growth_Rep2,[1]; [11],96.90%
same,Pf_120h_%Growth_Rep1,[2]; [12],80.74%
same,Pf_120h_%Growth_Rep2,[2]; [13],79.20%
same,Pf_72h_%Growth_Rep1,[3]; [10],78.34%
same,Pf_72h_%Growth_Rep2,[3]; [11],81.89%
CC(=O)O[C@@H]1CC[C@@]2(C)[C@@H](CC[C@@H](C)[C@]23Cc2c(O)cc(CO)c(C=O)c2O3)C1(C)C [Stachybotrysin B],Tg_72h_%Growth_Rep1,[1]; [4],84.36%
same,Tg_72h_%Growth_Rep2,[1]; [5],101.19%
same,Pf_120h_%Growth_Rep1,[2]; [6],161.09%
same,Pf_120h_%Growth_Rep2,[2]; [7],88.10%
same,Pf_72h_%Growth_Rep1,[3]; [8],81.92%
same,Pf_72h_%Growth_Rep2,[3]; [9],82.33%
